Patent publication US4379779A, “Equilin hapten and assay method” (American Home Products Corporation, priority 1980, dated 1983)

How the values were obtained:
[1] = test system: Equilin Antibody (anti-equilin serum); assay: Cross-reactivity of steroids with anti-equilin serum (radioimmunoassay); format: binding, rabbit; details: for Equilin Antibody (Percent Cross-Reactivity): Table 1, anti-equilin serum, [2,4-3H]-equilin tracer
Procedure: A standard was prepared from a stock solution of unlabeled equilin in absolute ethanol (100 ng/ml). A working standard solution containing 1 ng/ml of equilin was prepared in sodium phosphate buffer (0.1 M, pH 7, 0.9% NaCl). The labeled [2,4-^3 H]-equilin solution was prepared in the assay buffer at a concentration of 100 pg/ml. The antiserum was prepared in BSA-assay buffer (1 g BSA/1000 ml sodium phosphate buffer) at a concentration of one-fifth of the final working dilutions.
The standard curve was established by preparing duplicate 3 ml centrifuge tubes containing 0, 50, 100, 250, 500, 1000, and 2000 pg of equilin in a total volume of 0.5 ml assay buffer. The sample tubes were prepared in duplicate with hydrolyzed plasma extract (0.1 ml) and assay buffer (0.4 ml) in a total volume of 0.5 ml. To all standard and sample tubes antibody (0.25 ml) and labeled steroid (0.5 ml) were added. These were mixed and allowed to incubate at 4° C. for 18 hr. After addition of 0.2 ml gamma globulin dextrancoated charcoal (4 g charcoal, 0.4 g dextran, 0.8 g human gamma globulin, 200 ml deionized water), each tube was again mixed and placed in a cold room (4° C.) for 20 min. After centrifugation at 2,500 rev./min for 6 min, 0.5 ml of each supernatant was aliquoted into a counting vial. Then 15 ml of a scintillation medium (4 g of 2,5-diphenyloxazole (PPO), 50 mg of 1,4-di-2-(5-phenyloxazoyl)-benzene(dimethyl-POPOP), 100 ml of an aqueous solubilizer Biosolv BBS-3 (Biosolv is a trademark of Bechman Istruments, Irvine, Calif., U.S.A.) and 1000 ml toluene) was added to each vial. The samples were counted to a relative standard error of less than 2% in a Packard model 3320 liquid scintillation counter, Packard Instrument Co., Downers Grove, Ill., U.S.A., see C. Matthijssen and J. W. Goldzieher, Analyt. Biochem., 10, 401 (1965).
All rabbits immunized with the immunogen produced antisera with high titers and specificity in 6 months' time. The titer was determined from the ability of antibody to bind a constant amount (50 pg) of the labeled steroid. As a primary step, the cross-reactivity [G. E. Abraham, J. Clin. Endocrinol. Metabol., 29, 866 (1969)] of estrone with anti-equilin serum obtained from each rabbit was evaluated. […] These latter two compounds represent about 2% each of the typical composition of estrogens present in conjugated estrogens and will not interfere, as shown, in the validation of the assay.

[2] = Oxidation of equilin to equilenin during formic acid hydrolysis of the conjugate fraction (HPLC); format: physicochemical; details: 120 min
Procedure: Plasma (0.2 ml) and distilled water (0.7 ml) were added to a 16×125 nm tube and mixed. [6,7-^3 H]-Estrone-3-sulfate (0.1 ml, 2,000 cpm) and [2,4-^3 H]-equilin (0.1 ml, 2,000 cpm) were then added to correct for recovery through the assay procedure, and the sample again mixed well and allowed to stand at room temperature for 30 min. Diethyl ether (2 ml) was added for extraction of the free compound. The extraction was repeated three times and the combined extracts washed with distilled water (1 ml) and the solvent removed by evaporation. The aqueous phase containing the conjugates was re-extracted with 2 ml of ethyl acetate-ethanol (4:1, v/v). The extraction was repeated two more times and the combined extracts were dried in a centrifuge tube (12 ml) under a stream of nitrogen. The conjugate fraction was hydrolyzed with formic acid. A solution of ethyl acetate (1 ml) containing formic acid (20% ) and ascorbic acid (1 mg) was added to the tube containing the conjugate fraction. The tube was tightly closed, vortexed, and sonified for 10 min before being placed in a 37° C. water bath for 2 hr. The hydrolyzed sample was taken to dryness, sodium phosphate buffer (1 ml) was added. The solution was vortexed and allowed to stand at 20° C. for 10 min. The hydrolyzed free compound was extracted with diethyl ether (2 ml) three times and taken to dryness. […]

C[C@]12CCC3=C(CCc4cc(O)ccc43)[C@@H]1CCC2=O [8-Dehydroestrone]
Equilin Antibody (Percent Cross-Reactivity) [1]: 0.94%

C[C@]12CC[C@@H]3c4ccc(OS(=O)(=O)O)cc4CC[C@H]3[C@@H]1CCC2=O [Estrone 3-sulfate]
Equilin Antibody (Percent Cross-Reactivity) [1]: < 0.10%

C[C@]12CC[C@H]3C(=CCc4cc(O)ccc43)[C@@H]1CCC2=O [Equilin, 3-hydroxy-1,3,5(10),7-estratetraen-17-one]
Equilin Antibody (Percent Cross-Reactivity) [1]: 100.0%
equilin oxidized to equilenin during hydrolysis ([2]; formic acid hydrolysis with 0.1% (w/v) ascorbic acid added): 2-3%
equilin oxidized to equilenin during hydrolysis ([2]; hydrolysis of conjugate fraction with formic acid, no antioxidant): 13-16%

C[C@]12CC[C@@H]3c4ccc(O)cc4CC[C@H]3[C@@H]1CCC2=O [Estrone]
cross-reaction with anti-equilin serum [1]: negligible cross-reaction
Equilin Antibody (Percent Cross-Reactivity) [1]: 0.78%

CC(=O)[C@H]1CC[C@H]2[C@@H]3CCC4=CC(=O)CC[C@]4(C)[C@H]3CC[C@]12C [Progesterone]
Equilin Antibody (Percent Cross-Reactivity) [1]: < 0.10%

C[C@]12CC[C@H]3C(=CCc4cc(OS(=O)(=O)O)ccc43)[C@@H]1CCC2=O [Equilin 3-Sulfate]
Equilin Antibody (Percent Cross-Reactivity) [1]: 1.36%

C[C@]12CC[C@H]3[C@@H](CCC4=CC(=O)CC[C@@]43C)[C@@H]1CC[C@@H]2O [Testosterone]
Equilin Antibody (Percent Cross-Reactivity) [1]: < 0.10%

C[C@]12CC[C@H]3C(=CCc4cc(O)ccc43)[C@@H]1CC[C@H]2O [17α-Dihydroequilin]
Equilin Antibody (Percent Cross-Reactivity) [1]: < 0.10%

C[C@]12CC[C@@H]3c4ccc(O)cc4C=C[C@H]3[C@@H]1CCC2=O [6-Dehydroestrone]
Equilin Antibody (Percent Cross-Reactivity) [1]: < 0.10%

C[C@]12CC[C@@H](O)C[C@@H]1CC[C@@H]1[C@@H]2CC[C@]2(C)C(=O)CC[C@@H]12 [Androsterone]
Equilin Antibody (Percent Cross-Reactivity) [1]: < 0.10%

C[C@]12CC[C@@H]3c4ccc(O)cc4CC[C@H]3[C@@H]1CC[C@H]2O [17α-Estradiol]
Equilin Antibody (Percent Cross-Reactivity) [1]: < 0.10%

C[C@]12CCc3c(ccc4cc(O)ccc34)[C@@H]1CC[C@@H]2O [17β-Dihydroequilenin]
Equilin Antibody (Percent Cross-Reactivity) [1]: < 0.10%

C[C@]12CC[C@H]3C(=CCc4cc(O)ccc43)[C@@H]1CC[C@@H]2O [17β-Dihydroequilin]
cross-reaction with anti-equilin serum [1]: 2.9%
Equilin Antibody (Percent Cross-Reactivity) [1]: 2.86%

C[C@]12CCc3c(ccc4cc(O)ccc34)[C@@H]1CC[C@H]2O [17α-Dihydroequilenin]
Equilin Antibody (Percent Cross-Reactivity) [1]: < 0.10%

C[C@]12CCc3c(ccc4cc(O)ccc34)[C@@H]1CCC2=O [Equilenin]
cross-reaction with anti-equilin serum [1]: 3.5%
Equilin Antibody (Percent Cross-Reactivity) [1]: 3.45%

C[C@]12CCC(=O)C=C1CC[C@@H]1[C@@H]2CC[C@]2(C)C(=O)CC[C@@H]12 [4-Androstene-3,17-dione]
Equilin Antibody (Percent Cross-Reactivity) [1]: < 0.10%

C[C@]12CCC(=O)C=C1CC[C@@H]1[C@@H]2[C@@H](O)C[C@@]2(C)[C@H]1CC[C@]2(O)C(=O)CO [Cortisol]
Equilin Antibody (Percent Cross-Reactivity) [1]: < 0.10%

C[C@]12CC[C@@H]3c4ccc(O)cc4CC[C@H]3[C@@H]1CC[C@@H]2O [17β-Estradiol]
Equilin Antibody (Percent Cross-Reactivity) [1]: < 0.10%

C[C@]12CC[C@H](O)CC1=CC[C@@H]1[C@@H]2CC[C@]2(C)C(=O)CC[C@@H]12 [Dehydroepiandrosterone]
Equilin Antibody (Percent Cross-Reactivity) [1]: < 0.10%

C[C@]12CC[C@@H]3c4ccc(O)cc4C[C@@H](O)[C@]3(O)[C@@H]1CCC2=O [Equilin-7α,8α-glycol]
Equilin Antibody (Percent Cross-Reactivity) [1]: < 0.10%
